The values below come from ChEMBL document CHEMBL5500406, “Discovery of Novel Proteolysis-Targeting Chimera Molecules as Degraders of Programmed Cell Death-Ligand 1 for Breast Cancer Therapy” (J Med Chem, 2024).

Active and inactive are the calls of the source. No cut-off for these calls is given here.

The target of data set [1] is T1, Protein cereblon/Programmed cell death 1 ligand 1 (Mus musculus) (UniProt Q9EP73+Q8C7D2). Briefly: PROTAC activity at CRBN/PD-L1 in mouse 4T1 cells assessed as protein degradation at 1.25 to 20 uM incubated for 24 hrs by Western blot analysis. The data set is classed as cell-based. Particulars: dose 1.25-20 µM. For orientation: In western blotting, separated proteins are transferred to a membrane and probed.
T1 sequence (Q8C7D2 whole entry partner): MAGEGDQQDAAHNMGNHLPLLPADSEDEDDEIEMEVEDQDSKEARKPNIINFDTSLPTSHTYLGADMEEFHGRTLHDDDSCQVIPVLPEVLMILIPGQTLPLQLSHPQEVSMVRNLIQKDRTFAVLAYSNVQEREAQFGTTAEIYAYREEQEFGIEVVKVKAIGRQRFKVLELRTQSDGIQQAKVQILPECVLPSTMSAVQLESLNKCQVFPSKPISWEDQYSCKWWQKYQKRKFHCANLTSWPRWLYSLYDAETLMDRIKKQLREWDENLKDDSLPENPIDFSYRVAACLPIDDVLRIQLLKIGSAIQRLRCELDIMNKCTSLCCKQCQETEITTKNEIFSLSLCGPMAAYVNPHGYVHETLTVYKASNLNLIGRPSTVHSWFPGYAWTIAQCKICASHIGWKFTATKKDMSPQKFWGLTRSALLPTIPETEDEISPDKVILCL
T1 sequence (Q9EP73 19-290 limits assumed): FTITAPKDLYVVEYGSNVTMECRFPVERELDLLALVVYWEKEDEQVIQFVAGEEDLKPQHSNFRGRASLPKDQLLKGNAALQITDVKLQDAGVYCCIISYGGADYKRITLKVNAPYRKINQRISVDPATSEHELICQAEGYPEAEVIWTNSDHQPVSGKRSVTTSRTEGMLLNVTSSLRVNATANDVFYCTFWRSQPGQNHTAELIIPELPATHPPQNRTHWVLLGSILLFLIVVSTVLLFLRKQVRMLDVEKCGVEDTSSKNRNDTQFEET

Data set [2] concerns the target T1, Protein cereblon/Programmed cell death 1 ligand 1 (Mus musculus). Briefly: PROTAC activity at CRBN/PD-L1 in mouse 4T1 cells at 0.156 to 5 uM incubated for 24 hrs by Western blot analysis. The data set is classed as cell-based. The settings on record: dose 0.156-5 µM.
For data set [3], the system named is 4T1. Briefly: Antitumor activity against mouse 4T1 cells assessed as decrease in cell viability incubated for 24 hrs by LDH assay. The data set is classed as functional, cell-based.
The nature of data set [4]: Cytotoxicity against BALB/c mouse PBMC cells at <=0.312 uM incubated for 48 hrs by MTT assay. The data set is classed as toxicity, cell-based. In general terms: Tetrazolium dyes change colour on reduction, which living cells bring about.
Data set [5] concerns 4T1. Briefly: Antitumor activity against mouse 4T1 cells allografted in BALB/c mouse assessed as reduction in tumor weight at 10 mg/kg, ip qd for 15 days. The data set is classed as functional, organism-based. The settings on record: time 15.0 day.
The subject of data set [6] is 4T1. Briefly: Antitumor activity against mouse 4T1 cells allografted in BALB/c mouse assessed as reduction in tumor volume at 10 mg/kg, ip qd for 15 days. The data set is classed as functional, organism-based. Particulars: time 15.0 day.

For the compound `COc1nc(OCc2cccc(-c3ccccc3)c2C)ccc1CNCCNC(=O)CCCCCCCNC(=O)COc1ccc(C2CCC(=O)NC2=O)cc1` (configuration not stated), the outcome in data set [1] was Active.

For `COc1nc(OCc2cccc(-c3ccccc3)c2C)ccc1CNCCNC(C)=O.Cl`, the result in data set [2] was inactive. The result in data set [3] was Active. In data set [4], the Activity result is “Non-Toxic”.

Regarding `CC(=O)O[C@H]1C(=O)[C@@]2(C)[C@H]([C@H](OC(=O)c3ccccc3)[C@]3(O)C[C@H](OC(=O)[C@H](O)[C@@H](NC(=O)c4ccccc4)c4ccccc4)C(C)=C1C3(C)C)[C@]1(OC(C)=O)CO[C@@H]1C[C@@H]2O`, the result in data set [5] and in data set [6] was Active.

As for `COc1nc(OCc2cccc(-c3ccccc3)c2C)ccc1CNCCNC(=O)CCCCCCNC(=O)COc1ccc(C2CCC(=O)NC2=O)cc1` (configuration not stated), the result in data set [1] was Active.
